Series [1] has as its system DPX2 (HepG2 cells were stably transfected with the human PXR gene and the fluorescent reporter gene) cells. The series is described as follows: Cell viability in the PXR induction assay (CellTiter-Fluor). The class given is cell-based. The procedure: • 1. The potential of the test compounds to induce the activity of drug metabolism enzymes through in vitro activation of PXR was evaluated. […] […] Experimental procedures • 3.1. Preparation for plating • 1) 50 mL of FBS was added to 450 mL of cell culture medium. • 2) DPX2 cells were cultured in a T-75 culture flask in a 37 °C, 5% CO2 incubator with 95% relative humidity. When covering 80-90% of the bottom of the culture flask, the cells were digested. • 3) The top layer of cells cultured in the T-75 culture flask was washed with 8 mL of PBS, and the PBS was pipetted off. The cells were digested with 3 mL of pancreatin at 37 °C for about 5 min or until they were floating in the pancreatin. 10 mL (excessive) of a serum-containing culture medium was added to neutralize the pancreatin. • 4) The cell suspension was transferred to a conical-bottomed centrifuge tube and centrifuged at 120 g for 10 min. The cells were suspended in the plating culture medium, and the concentration was adjusted to 4 × 10^5 cells/mL. The diluted cells were added to a 96-well cell culture plate at 100 µL/well. The culture plate was placed in an incubator and incubated at 37 °C for 24 h before the PXR activation experiment. • 3.2. […] […] The final concentration of DMSO was 0.1%. 1 µL of DMSO was added to a well containing 1 mL of pre-incubated culture medium as a solvent control. • 2) The cell culture plate was taken out of the incubator, and the culture medium was discarded. The test compounds and the positive compound were added to appropriate wells at 100 µL/well, and each group was tested in duplicate. The cell plate was placed in an incubator and incubated for 24 h. • 3.3. Quantification of PXR activation • 1) After […] of compound treatment, PXR activation was quantified for the culture. • 2) The CellTiter-Fluor™ cell viability assay kit and the One-Glo Luciferase reagent were equilibrated to room temperature. The GF-AFC (10 µL) substrate was added to Assay Buffer (10 mL) to form a 2× reagent, and the reagent was then diluted to 1× with 10 mL of PBS; the ONE-Glo substrate was added to the ONE-Glo Luciferase Assay buffer. • 3) The cell culture plate was taken out of the incubator, and the culture medium in each well was discarded. The plate was washed twice with PBS. The 1× CellTiter-Fluor™ reagent was added to a sterilized reagent reservoir, and 50 µL was transferred to each well using a multi-channel pipette. The plate was incubated at 37 °C for 30 min. • 4) The 96-well cell plate was taken out of the incubator, and the fluorescence in each well was measured using a microplate reader put in the fluorescence mode at an excitation wavelength of 400 nm and an emission wavelength of 505 nm. • 5) The ONE-Glo reagent was poured into a reagent reservoir, and then 50 µL was transferred to each well using a multi-channel pipette. The reagent was gently and well mixed, and the mixture was incubated and well mixed at room temperature for 5 min. After the incubation, the luminescence in each well was measured using a luminometer.
The calculation formula for cell viability: Percent cell viability (%) = I(sample)/(I(vehicle) × 100 [formula]
I(sample) represents the fluorescence intensity of the sample, and I(vehicle) represents the fluorescence intensity of 0.1% DMSO to cells.

The target of the next series is T1, CDK4/CyclinD1 (Homo sapiens, UniProt P11802).
T1 construct: purchased ProQinase 0142-0143-1
T1 sequence (P11802 whole entry): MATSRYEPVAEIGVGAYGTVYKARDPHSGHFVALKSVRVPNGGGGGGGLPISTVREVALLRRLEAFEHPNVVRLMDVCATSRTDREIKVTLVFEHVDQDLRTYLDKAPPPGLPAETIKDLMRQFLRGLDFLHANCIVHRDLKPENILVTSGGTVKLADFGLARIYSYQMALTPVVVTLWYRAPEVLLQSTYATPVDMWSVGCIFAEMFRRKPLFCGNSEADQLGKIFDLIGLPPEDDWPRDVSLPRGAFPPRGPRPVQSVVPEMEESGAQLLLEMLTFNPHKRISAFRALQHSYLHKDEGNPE
T1 sequence (P24385 whole entry partner): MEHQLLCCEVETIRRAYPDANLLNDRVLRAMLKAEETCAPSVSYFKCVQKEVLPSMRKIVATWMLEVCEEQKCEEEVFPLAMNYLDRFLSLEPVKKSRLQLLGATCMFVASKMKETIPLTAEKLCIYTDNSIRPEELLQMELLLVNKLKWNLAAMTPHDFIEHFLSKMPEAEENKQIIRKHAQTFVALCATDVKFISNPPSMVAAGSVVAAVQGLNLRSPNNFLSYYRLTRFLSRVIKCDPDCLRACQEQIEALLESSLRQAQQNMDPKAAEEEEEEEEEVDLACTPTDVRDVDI
The series is described as follows: Kinase activity assay, mobility shift assay (CDK4/CyclinD1). In kind it is biochemical. The following applies: Table 18; read-out: CDK4/D1 IC50. The procedure:
In vitro CDK kinase activity was tested using a mobility shift assay. […] A proper amount of kinase was added to the 1× kinase buffer to prepare a 2.5× enzyme solution. 5× compound dilutions (1× kinase buffer, 10% DMSO) corresponding to the test concentrations of the compounds were prepared. […] 5 µL of 5× compound dilution and 10 µL of 2.5× enzyme solution were added to reaction wells of a 384-well reaction plate. After thorough mixing, the plate was incubated at room temperature for 10 min. […] The reaction plate was incubated at 28 °C for 60 min (biochemical incubator model: SPX-100B-Z). 30 µL of stop solution was added to the 384-well reaction plate to stop the reactions, and the plate was centrifuged at 1000 rpm for 1 min.
IC50 values for the compounds were obtained by fitting using XLFit excel add-in version 5.4.0.8. Fitting formula: Y = Bottom + (Top−Bottom)/(1+((IC50/X))^(∧)HillSlope). [formula]

The next series addresses CYP2C19 (Homo sapiens, UniProt P33261). The series can be described thus: biochemical.
The target of the next series is CYP2C9 (Homo sapiens, UniProt P11712). The series is described as follows: biochemical.
CYP2C9, sequence (P11712 whole entry): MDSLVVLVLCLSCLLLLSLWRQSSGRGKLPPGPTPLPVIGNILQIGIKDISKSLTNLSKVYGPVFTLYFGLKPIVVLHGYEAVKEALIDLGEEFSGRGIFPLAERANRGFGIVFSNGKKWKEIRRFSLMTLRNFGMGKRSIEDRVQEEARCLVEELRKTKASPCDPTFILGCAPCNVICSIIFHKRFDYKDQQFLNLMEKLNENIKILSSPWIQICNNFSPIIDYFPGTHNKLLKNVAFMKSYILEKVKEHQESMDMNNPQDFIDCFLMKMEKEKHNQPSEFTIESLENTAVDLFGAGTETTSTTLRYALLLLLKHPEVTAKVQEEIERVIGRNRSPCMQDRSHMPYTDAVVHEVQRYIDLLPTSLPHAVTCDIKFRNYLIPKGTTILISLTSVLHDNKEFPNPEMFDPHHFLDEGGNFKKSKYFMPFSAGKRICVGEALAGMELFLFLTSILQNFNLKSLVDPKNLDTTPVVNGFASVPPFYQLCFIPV
[2] abbreviates: compound concentration 0.123 µM.

CYP2C19, sequence (P33261 whole entry): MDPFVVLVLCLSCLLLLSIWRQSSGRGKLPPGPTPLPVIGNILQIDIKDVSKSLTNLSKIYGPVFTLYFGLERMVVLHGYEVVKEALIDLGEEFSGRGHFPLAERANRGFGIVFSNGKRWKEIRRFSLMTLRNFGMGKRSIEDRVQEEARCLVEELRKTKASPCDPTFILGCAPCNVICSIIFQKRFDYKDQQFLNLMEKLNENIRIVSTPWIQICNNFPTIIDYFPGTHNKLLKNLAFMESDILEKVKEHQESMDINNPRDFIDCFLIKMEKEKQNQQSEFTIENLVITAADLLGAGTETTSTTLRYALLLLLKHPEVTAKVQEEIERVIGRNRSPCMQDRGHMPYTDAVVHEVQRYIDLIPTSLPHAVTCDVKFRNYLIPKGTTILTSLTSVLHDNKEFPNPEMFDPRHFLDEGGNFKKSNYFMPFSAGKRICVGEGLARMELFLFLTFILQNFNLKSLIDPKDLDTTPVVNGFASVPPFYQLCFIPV
Method for CYP2C19: (§1) The effects of different concentrations of the test compounds on the metabolic reactions of phenacetin (CYP1A2), diclofenac sodium (CYP2C9), S-mephenytoin (CYP2C19), bufuralol hydrochloride (CYP2D6), and midazolam (CYP3A4/5) were assessed by liquid chromatography-tandem mass spectrometry (LC/MS/MS).
(§2) Then, 200 µL of an acetonitrile solution containing 3% formic acid and 40 nM internal standard verapamil was added, and the mixture was centrifuged at 4000 rpm for 50 min. The mixture was cooled on ice for 20 min and centrifuged at 4000 rpm for 20 min to precipitate protein. 200 µL of the supernatant was taken for LC/MS/MS analysis.
(§3) The peak area was calculated based on the chromatogram. The residual activity proportion (%) was calculated using the following formula: peak area ratio = peak area of metabolite / peak area of internal standard [formula]
(§4) The half maximal inhibitory concentrations (IC50) against CYP were calculated using Excel XLfit 5.3.1.3.
Method for CYP2C9: as §1, §2, §3, §4

As to `C[C@@H]1COc2c(-c3nc(N[C@@H]4CCOC[C@H]4O)ncc3Cl)cc(F)c3nc(C(C)(C)O)n1c23` (single isomer, unassigned) [Isomer 2 with a retention time of 1.887 min], the “Cell viability (%)” value is 102.41% in series [1] (setting [2]) and 108.37% in series [1] (compound concentration 10.0 µM). Also, the IC50 on CDK4/CyclinD1 was 0.014 µM; on CYP2C19 it was more than 30 µM; at CYP2C9, more than 30 µM.

As for `C[C@H]1COc2c(-c3nc(N[C@@H]4CCOC[C@H]4O)ncc3Cl)cc(F)c3nc(C(C)(C)O)n1c23` (single isomer, unassigned) [Isomer 1 with a retention time of 2.078 min], the results for the “Cell viability (%)” value in series [1] (setting [2]) and in series [1] (compound concentration 10.0 µM) were 99.16% and 117.18%, respectively. The IC50 was 0.0082 µM on CDK4/CyclinD1, more than 30 µM on CYP2C19 and more than 30 µM on CYP2C9.

For the origin of these results see patent publication EP4567040A1, “CRYSTAL FORM OF FUSED TRICYCLIC DERIVATIVE AND PREPARATION METHOD” (Jiangsu Hengrui Pharmaceuticals Co., Ltd., priority 2022, dated 2024).
